For two compounds, AC50 results are on record in ChEMBL document CHEMBL1201862, “PubChem BioAssay data set” (2004).

Calls of active or inactive are those of the source. Rule as the data show it: actives have a measured AC50 and inactives only a lower limit.

In assay [1] the target is T1, Histone-lysine N-methyltransferase NSD2 (Homo sapiens, UniProt O96028).
T1 sequence (O96028 whole entry): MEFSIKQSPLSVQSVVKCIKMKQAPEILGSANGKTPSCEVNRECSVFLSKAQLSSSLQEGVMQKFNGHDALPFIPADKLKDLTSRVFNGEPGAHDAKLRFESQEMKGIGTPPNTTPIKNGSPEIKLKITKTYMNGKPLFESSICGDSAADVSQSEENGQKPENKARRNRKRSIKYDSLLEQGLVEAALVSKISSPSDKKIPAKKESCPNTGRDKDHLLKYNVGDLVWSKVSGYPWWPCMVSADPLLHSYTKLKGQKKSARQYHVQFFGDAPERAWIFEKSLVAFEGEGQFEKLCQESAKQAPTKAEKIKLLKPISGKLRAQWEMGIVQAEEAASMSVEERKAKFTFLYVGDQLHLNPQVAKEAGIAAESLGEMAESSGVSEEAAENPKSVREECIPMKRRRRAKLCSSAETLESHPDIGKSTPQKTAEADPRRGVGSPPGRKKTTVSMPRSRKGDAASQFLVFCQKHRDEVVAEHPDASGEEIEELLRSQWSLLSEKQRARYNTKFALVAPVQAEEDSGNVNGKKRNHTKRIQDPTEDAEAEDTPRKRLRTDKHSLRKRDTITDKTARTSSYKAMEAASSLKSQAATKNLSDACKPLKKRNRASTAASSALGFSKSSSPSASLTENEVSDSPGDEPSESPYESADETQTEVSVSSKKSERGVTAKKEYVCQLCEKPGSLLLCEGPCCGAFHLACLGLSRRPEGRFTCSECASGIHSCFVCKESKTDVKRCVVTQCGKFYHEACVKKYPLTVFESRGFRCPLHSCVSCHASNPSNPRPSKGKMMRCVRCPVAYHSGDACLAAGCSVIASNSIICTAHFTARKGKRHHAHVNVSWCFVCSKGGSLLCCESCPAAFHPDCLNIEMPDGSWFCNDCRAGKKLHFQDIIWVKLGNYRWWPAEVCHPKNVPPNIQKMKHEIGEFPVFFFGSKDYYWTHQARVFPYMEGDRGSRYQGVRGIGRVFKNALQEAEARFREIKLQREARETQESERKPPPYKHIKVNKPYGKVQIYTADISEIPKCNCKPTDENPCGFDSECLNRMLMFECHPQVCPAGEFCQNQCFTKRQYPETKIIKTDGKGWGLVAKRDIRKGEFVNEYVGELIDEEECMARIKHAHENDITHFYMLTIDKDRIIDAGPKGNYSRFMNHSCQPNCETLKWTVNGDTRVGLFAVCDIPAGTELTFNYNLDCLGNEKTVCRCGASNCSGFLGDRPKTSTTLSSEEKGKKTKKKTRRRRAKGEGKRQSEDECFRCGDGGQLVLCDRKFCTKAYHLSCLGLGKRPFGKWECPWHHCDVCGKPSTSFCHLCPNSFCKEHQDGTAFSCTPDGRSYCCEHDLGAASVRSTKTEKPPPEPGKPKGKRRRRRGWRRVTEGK
The format is biochemical.

A further assay deals with Trypsin (Sus scrofa, UniProt P00761). Put plainly: trypsin protease activity blockade – biochemical, quenched peptide fluorescence, cherry-pick, selectivity assay for Rce1 protease inhibitor project, dose response (AID 488789).
Sequence of Trypsin (P00761 whole entry): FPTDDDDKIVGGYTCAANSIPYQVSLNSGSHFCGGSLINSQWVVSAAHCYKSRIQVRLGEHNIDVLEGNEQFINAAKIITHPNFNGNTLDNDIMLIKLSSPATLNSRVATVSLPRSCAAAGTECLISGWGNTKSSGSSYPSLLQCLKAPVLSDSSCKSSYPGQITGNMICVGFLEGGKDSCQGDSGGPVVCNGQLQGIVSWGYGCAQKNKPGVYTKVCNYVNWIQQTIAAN

As to `CCc1ccc(S(=O)(=O)/N=C2\C=C(Nc3cccc(C(=O)O)c3)C(=O)c3ccccc32)cc1`, the AC50 in assay [1] is 0.263 µM (active).
Consider `CCCCCCCCCCOC(=O)Cn1c(COc2cccc(OC)c2)[n+](C)c2ccccc21`, for which, on Trypsin, the AC50 is 5.16 µM (active).
